Test results published in US9340590B2 (priority 2011, dated 2016).
Positions of bridges follow the written chain, without caps; N, C: chain ends. Residues, ends and D or L forms follow the SMILES beside them.

Columns and labels:
Test in all cases: cell-based
hNav1.7 = hNav1.7 (Homo sapiens, UniProt Q15858); format: cell-based; settings: IonWorks Quattro, use-dependent protocol, hNav1.7; read-out: IWQ Use Nav1.7
hNav1.3 = hNav1.3 (Homo sapiens, UniProt Q9NY46); settings: IonWorks Quattro, use-dependent protocol, hNav1.3; read-out: IWQ Use Nav1.3
hNav1.3, sequence (Q9NY46 whole entry, looked up): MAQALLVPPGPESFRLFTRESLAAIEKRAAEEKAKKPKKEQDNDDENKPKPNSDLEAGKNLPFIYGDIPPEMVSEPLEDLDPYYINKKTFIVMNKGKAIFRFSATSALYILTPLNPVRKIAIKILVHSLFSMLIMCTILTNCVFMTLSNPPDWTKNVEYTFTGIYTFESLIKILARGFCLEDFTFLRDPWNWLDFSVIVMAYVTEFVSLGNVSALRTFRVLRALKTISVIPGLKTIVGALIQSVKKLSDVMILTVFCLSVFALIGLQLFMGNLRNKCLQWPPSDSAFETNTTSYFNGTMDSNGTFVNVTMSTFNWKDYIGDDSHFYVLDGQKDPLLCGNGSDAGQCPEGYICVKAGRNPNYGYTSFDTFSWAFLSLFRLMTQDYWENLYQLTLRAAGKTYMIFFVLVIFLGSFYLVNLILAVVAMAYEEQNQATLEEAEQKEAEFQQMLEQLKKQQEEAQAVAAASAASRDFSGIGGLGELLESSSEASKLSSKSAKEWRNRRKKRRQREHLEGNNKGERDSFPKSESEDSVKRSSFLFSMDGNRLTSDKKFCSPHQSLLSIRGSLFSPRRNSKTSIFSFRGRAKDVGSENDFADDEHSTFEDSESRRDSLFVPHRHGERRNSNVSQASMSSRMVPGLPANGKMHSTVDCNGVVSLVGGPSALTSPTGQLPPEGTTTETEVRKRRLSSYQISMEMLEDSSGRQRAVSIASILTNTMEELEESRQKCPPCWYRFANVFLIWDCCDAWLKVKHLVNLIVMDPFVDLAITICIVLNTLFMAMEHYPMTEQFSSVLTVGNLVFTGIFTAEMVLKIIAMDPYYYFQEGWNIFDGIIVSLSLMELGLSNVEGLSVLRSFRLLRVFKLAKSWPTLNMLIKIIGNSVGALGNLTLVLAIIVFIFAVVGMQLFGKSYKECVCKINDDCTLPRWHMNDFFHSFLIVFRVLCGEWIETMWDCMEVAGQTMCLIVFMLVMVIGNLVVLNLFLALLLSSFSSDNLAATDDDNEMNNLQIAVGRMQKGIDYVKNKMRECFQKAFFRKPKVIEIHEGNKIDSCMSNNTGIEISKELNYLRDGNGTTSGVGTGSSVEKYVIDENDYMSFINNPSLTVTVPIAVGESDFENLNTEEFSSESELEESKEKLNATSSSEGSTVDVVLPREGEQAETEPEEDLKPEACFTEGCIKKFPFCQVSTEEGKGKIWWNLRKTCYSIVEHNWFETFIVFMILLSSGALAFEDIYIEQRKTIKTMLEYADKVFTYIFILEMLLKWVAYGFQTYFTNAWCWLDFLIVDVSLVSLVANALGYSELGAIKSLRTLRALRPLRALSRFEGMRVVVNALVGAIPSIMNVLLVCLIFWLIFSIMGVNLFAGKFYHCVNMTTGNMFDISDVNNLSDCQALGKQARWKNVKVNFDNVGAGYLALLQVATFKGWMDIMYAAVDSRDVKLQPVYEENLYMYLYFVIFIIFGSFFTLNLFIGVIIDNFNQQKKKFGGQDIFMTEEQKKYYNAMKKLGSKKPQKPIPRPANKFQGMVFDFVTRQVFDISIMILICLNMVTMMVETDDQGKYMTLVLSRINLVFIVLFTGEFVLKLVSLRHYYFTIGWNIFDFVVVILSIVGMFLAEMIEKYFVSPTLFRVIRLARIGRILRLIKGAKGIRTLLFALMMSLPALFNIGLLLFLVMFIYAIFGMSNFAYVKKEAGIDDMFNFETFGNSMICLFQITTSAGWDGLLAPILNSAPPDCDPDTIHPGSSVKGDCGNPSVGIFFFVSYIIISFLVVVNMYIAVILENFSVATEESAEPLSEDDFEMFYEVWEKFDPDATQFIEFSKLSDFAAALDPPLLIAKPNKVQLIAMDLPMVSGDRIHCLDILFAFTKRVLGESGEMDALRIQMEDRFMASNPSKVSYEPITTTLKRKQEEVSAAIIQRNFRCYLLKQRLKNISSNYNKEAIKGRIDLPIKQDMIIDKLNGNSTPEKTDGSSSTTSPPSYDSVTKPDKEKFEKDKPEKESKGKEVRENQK

hNav1.5 = hNav1.5 (Homo sapiens, UniProt Q14524); settings: IonWorks Quattro, use-dependent protocol, hNav1.5; read-out: IWQ Use Nav1.5

hNav1.7, sequence (Q15858 whole entry, looked up): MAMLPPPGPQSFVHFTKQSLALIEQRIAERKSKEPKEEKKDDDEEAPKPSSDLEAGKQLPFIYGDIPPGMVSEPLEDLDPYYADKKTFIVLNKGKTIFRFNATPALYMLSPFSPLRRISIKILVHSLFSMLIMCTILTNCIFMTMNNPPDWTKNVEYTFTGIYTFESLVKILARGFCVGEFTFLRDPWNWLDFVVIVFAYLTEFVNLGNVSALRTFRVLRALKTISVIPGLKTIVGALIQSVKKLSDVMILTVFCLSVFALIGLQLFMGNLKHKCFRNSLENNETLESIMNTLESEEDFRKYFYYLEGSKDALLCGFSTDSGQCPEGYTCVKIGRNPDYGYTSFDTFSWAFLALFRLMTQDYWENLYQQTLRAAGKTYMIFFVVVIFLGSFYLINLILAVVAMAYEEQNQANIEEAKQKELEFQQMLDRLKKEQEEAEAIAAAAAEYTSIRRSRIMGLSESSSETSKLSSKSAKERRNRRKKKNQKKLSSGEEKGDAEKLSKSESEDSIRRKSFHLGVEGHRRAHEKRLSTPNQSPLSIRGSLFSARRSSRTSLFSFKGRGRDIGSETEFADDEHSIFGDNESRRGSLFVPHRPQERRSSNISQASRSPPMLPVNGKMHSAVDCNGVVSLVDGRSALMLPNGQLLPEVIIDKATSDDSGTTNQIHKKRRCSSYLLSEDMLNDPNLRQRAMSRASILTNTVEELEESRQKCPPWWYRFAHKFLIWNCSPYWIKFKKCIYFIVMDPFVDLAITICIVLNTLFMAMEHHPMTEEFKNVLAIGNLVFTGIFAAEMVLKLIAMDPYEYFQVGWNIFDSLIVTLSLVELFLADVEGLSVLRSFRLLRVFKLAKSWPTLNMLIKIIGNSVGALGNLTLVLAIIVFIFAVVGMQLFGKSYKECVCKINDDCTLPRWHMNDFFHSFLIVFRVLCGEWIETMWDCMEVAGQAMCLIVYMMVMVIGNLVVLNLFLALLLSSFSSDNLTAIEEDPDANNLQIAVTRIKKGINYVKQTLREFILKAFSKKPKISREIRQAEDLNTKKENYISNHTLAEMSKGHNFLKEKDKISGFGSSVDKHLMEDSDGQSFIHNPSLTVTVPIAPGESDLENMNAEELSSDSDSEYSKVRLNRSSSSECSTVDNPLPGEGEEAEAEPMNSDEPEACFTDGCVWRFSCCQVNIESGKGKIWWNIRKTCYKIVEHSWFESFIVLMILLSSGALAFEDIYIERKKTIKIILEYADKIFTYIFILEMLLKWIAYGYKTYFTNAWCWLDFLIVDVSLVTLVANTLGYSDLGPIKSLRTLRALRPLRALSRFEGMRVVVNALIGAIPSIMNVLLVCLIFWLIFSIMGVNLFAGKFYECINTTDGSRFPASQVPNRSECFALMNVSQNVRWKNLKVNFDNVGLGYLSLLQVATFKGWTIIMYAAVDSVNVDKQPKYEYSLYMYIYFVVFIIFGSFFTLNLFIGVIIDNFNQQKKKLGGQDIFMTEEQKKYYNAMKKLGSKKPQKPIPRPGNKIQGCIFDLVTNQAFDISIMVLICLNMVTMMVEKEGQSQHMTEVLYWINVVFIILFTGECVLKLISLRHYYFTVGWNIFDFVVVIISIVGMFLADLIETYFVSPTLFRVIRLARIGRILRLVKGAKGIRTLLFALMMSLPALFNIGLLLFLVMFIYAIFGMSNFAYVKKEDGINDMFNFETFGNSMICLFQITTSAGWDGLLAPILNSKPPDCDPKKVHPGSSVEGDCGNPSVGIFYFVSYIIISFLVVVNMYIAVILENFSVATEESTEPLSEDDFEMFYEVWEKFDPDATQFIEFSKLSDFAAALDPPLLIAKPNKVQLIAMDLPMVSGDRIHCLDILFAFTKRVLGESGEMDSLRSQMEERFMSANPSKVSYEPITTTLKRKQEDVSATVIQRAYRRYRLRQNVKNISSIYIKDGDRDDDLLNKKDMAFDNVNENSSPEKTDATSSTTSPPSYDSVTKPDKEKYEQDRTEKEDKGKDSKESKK

SMILES | IC50 (hNav1.7) | IC50 (hNav1.3) | IC50 (hNav1.5)
CC(C)C[C@@H]1NC(=O)[C@@H](NC(=O)[C@@H](N)CC(=O)O)CSSC[C@@H]2NC(=O)[C@@H]3CSSC[C@@H](C(=O)N[C@@H](CCCCN)C(=O)N[C@@H](Cc4ccc(O)cc4)C(=O)N[C@H](C(=O)N[C@@H](Cc4ccccc4)C(N)=O)C(C)C)NC(=O)[C@H](Cc4c[nH]c5ccccc45)NC(=O)[C@H](CCCCN)NC(=O)[C@H](Cc4c[nH]cn4)NC(=O)[C@H]([C@@H](C)O)NC(=O)[C@H](CCCNC(=N)N)NC(=O)[C@H](CO)NC(=O)[C@H](CSSC[C@H](NC(=O)[C@H](CCCCN)NC(=O)[C@H](CCCNC(=N)N)NC(=O)[C@H](Cc4ccccc4)NC(=O)[C@H](C)NC(=O)CNC1=O)C(=O)N[C@@H](CC(=O)O)C(=O)N1CCC[C@H]1C(=O)N[C@@H](CC(=O)O)C(=O)N[C@@H](CC(N)=O)C(=O)N[C@@H](CC(=O)O)C(=O)N[C@@H](CCCCN)C(=O)N3)NC(=O)[C@H](C(C)C)NC(=O)[C@H](CC(C)C)NC(=O)[C@H](CC(N)=O)NC(=O)[C@@H]1CCCN1C(=O)[C@H](CCCNC(=N)N)NC2=O [compound 702] (H-DCLGAFRKCDPDNDKCCRPNLVCSRTHKWCKYVF-NH2; disulfide 2-17, 9-23, 16-30) | 0.72 µM | 0.37 µM | 43 µM
CC[C@H](C)[C@@H]1NC(=O)[C@@H]2CSSC[C@@H]3NC(=O)[C@H](C(C)C)NC(=O)[C@H](CC(C)C)NC(=O)[C@H](CC(N)=O)NC(=O)[C@@H]4CCCN4C(=O)[C@H](CCCNC(=N)N)NC(=O)[C@H](CSSC[C@H](NC(=O)[C@@H](N)CC(=O)O)C(=O)N[C@@H](CC(C)C)C(=O)NCC(=O)N[C@@H](C)C(=O)N[C@@H](Cc4ccccc4)C(=O)N[C@@H](CCCNC(=N)N)C(=O)N[C@@H](CCCCN)C(=O)N2)NC(=O)[C@H](CSSC[C@@H](C(=O)N[C@@H](CCCCN)C(=O)N[C@@H](Cc2ccc(O)cc2)C(=O)N[C@H](C(=O)N[C@@H](Cc2ccccc2)C(N)=O)C(C)C)NC(=O)[C@H](Cc2c[nH]c4ccccc24)NC(=O)[C@H](CCCCN)NC(=O)[C@H](Cc2c[nH]cn2)NC(=O)[C@H]([C@@H](C)O)NC(=O)[C@H](CCCNC(=N)N)NC(=O)[C@H](CO)NC3=O)NC(=O)[C@H](CCCCN)NC(=O)[C@H](CC(=O)O)NC(=O)[C@H](CC(N)=O)NC(=O)[C@H](CCC(=O)O)NC(=O)[C@@H]2CCCN2C1=O [compound 703] (H-DCLGAFRKCIPENDKCCRPNLVCSRTHKWCKYVF-NH2; disulfide 2-17, 9-23, 16-30) | 0.61 µM | 0.2 µM | 45 µM
CC[C@H](C)[C@@H]1NC(=O)[C@@H]2CSSC[C@@H]3NC(=O)[C@H](C(C)C)NC(=O)[C@H](CC(C)C)NC(=O)[C@H](CC(N)=O)NC(=O)[C@@H]4CCCN4C(=O)[C@H](CCCNC(=N)N)NC(=O)[C@H](CSSC[C@H](NC(=O)[C@@H](N)CC(=O)O)C(=O)N[C@@H](CC(C)C)C(=O)NCC(=O)N[C@@H](C(C)C)C(=O)N[C@@H](CCSC)C(=O)N[C@@H](CCCNC(=N)N)C(=O)N[C@@H](CCCCN)C(=O)N2)NC(=O)[C@H](CSSC[C@@H](C(=O)N[C@@H](CCCCN)C(=O)N[C@@H](Cc2ccc(O)cc2)C(=O)N[C@H](C(=O)N[C@@H](Cc2ccccc2)C(N)=O)C(C)C)NC(=O)[C@H](Cc2c[nH]c4ccccc24)NC(=O)[C@H](CCC(=O)O)NC(=O)[C@H](Cc2c[nH]cn2)NC(=O)[C@H]([C@@H](C)O)NC(=O)[C@H](CCCNC(=N)N)NC(=O)[C@H](CO)NC3=O)NC(=O)[C@H](CCCCN)NC(=O)[C@H](CC(=O)O)NC(=O)[C@H](CC(N)=O)NC(=O)[C@H](CC(=O)O)NC(=O)[C@@H]2CCCN2C1=O [compound 704] (H-DCLGVMRKCIPDNDKCCRPNLVCSRTHEWCKYVF-NH2; disulfide 2-17, 9-23, 16-30) | 0.99 µM | > 5 µM | 49 µM
